Source: patent publication US7138361B2, “Herbicidal heterocycles” (E. I. du Pont de Nemours and Company, priority 2000, dated 2006)

What was measured:
Assay type in all cases: in vivo
Nightshade = assay: Test C preemergence; details: visual evaluation after 12 to 14 days
Sunflower = assay: Test C preemergence; details: scale 0 to 100, 0 no effect, 100 complete control
[1] = system: cocklebur (Xanthium strumarium); assay: Test B postemergence; details: 13 to 15 days
Method in brief: (§1)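 Seeds were planted and sprayed preemergence with test chemical in a non-phytotoxic solvent mixture containing surfactant; postemergence plants (2 to 18 cm, 1- to 4-leaf stage) received the same formulation. Greenhouse hold 13 to 15 days, then visual rating versus untreated controls on a 0–100 scale (0 no effect, 100 complete control).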

[2] = system: blackgrass (Alopecurus myosuroides); assay: Test B postemergence; details: 13 to 15 days
Method in brief: as §1

wild oat (Avena fatua) = assay: Test B postemergence; details: 13 to 15 days
Method in brief: as §1

[3] = system: crabgrass (Digitaria sanguinalis); assay: Test B postemergence; details: 13 to 15 days
Method in brief: as §1

[4] = system: lambsquarters (Chenopodium album); assay: Test B postemergence; details: 13 to 15 days
Method in brief: as §1

[5] = system: velvetleaf (Abutilon theophrasti); assay: Test B postemergence; details: 13 to 15 days
Method in brief: as §1

[6] = system: morning glory (Ipomoea hederacea); assay: Test B postemergence; details: 13 to 15 days
Method in brief: as §1

[7] = system: barnyardgrass (Echinochloa crus-galli); assay: Test B postemergence; details: 13 to 15 days
Method in brief: as §1

[8] = system: giant foxtail (Setaria faberii); assay: Test B postemergence; details: 13 to 15 days
Method in brief: as §1

[9] = system: wheat (Triticum aestivum); assay: Test B postemergence; details: 13 to 15 days
Method in brief: as §1

[10] = system: Surinam grass (Brachiaria decumbens); assay: Test B postemergence; details: 13 to 15 days
Method in brief: as §1

corn (Zea mays) [11] = assay: Test B postemergence; details: 13 to 15 days
Method in brief: as §1

[12] = system: pigweed (Amaranthus retroflexus); assay: Test B postemergence; details: 13 to 15 days
Method in brief: as §1

[13] = system: cocklebur (Xanthium strumarium); assay: Test B preemergence
Method in brief: as §1

[14] = system: crabgrass (Digitaria sanguinalis); assay: Test B preemergence
Method in brief: as §1

[15] = system: lambsquarters (Chenopodium album); assay: Test B preemergence
Method in brief: as §1

[16] = system: velvetleaf (Abutilon theophrasti); assay: Test B preemergence
Method in brief: as §1

[17] = system: morning glory (Ipomoea hederacea); assay: Test B preemergence
Method in brief: as §1

[18] = system: barnyardgrass (Echinochloa crus-galli); assay: Test B preemergence
Method in brief: as §1

[19] = system: giant foxtail (Setaria faberii); assay: Test B preemergence
Method in brief: as §1

rice (Oryza saliva) = assay: Test B preemergence
Method in brief: as §1

[20] = system: Surinam grass (Brachiaria decumbens); assay: Test B preemergence
Method in brief: as §1

corn (Zea mays) [21] = assay: Test B preemergence
Method in brief: as §1

[22] = system: pigweed (Amaranthus retroflexus); assay: Test B preemergence
Method in brief: as §1

[23] = Rate 125 g/ha, scale 0 (no effect) to 100 (complete control)
[24] = Rate 500 g/ha, scale 0 to 100, 0 is no effect, 100 is complete control
[25] = Preemergence, Rate 500 g/ha, scale 0 to 100, 0 no effect, 100 complete control
[26] = preemergence, Rate 125 g/ha, scale of 0 to 100 where 0 is no effect and 100 is complete control, 13 to 15 days
[27] = preemergence, Rate 125 g/ha, scale 0 to 100, 0 no effect, 100 complete control

## COc1cc(N2CCC(n3ccc(C(C)C)n3)C2=O)ccc1C (stereo not drawn) [Compound 85]
Nightshade; Rate 500 g/ha
  Plant response rating (0 to 100), Nightshade: 100
Sunflower; Rate 250 g/ha
  Plant response rating, Sunflower: 70
[1]; [23]
  Plant response rating, Cocklebur: 40
[1]; [24]
  Plant response rating, Cocklebur: 100
[2]; [23]
  Plant response rating, Blackgrass: 0
[2]; [24]
  Plant response rating, Blackgrass: 20
Wild oat (Avena fatua); [23]
  Plant response rating, Wild Oat: 0
Wild oat (Avena fatua); [24]
  Plant response rating, Wild Oat: 20
[3]; [23]
  Plant response rating, Crabgrass: 20
[3]; [24]
  Plant response rating, Crabgrass: 50
[4]; [23]
  Plant response rating, Lambsquarters: 30
[4]; [24]
  Plant response rating, Lambsquarters: 90
[5]; [23]
  Plant response rating, Velvetleaf: 20
[5]; [24]
  Plant response rating, Velvetleaf: 50
[6]; [23]
  Plant response rating, Morningglory: 0
[6]; [24]
  Plant response rating, Morningglory: 80
[7]; [23]
  Plant response rating, Barnyardgrass: 0
[7]; [24]
  Plant response rating, Barnyardgrass: 50
[8]; [23]
  Plant response rating, Foxtail, Giant: 0
[8]; [24]
  Plant response rating, Foxtail, Giant: 20
[9]; [23]
  Plant response rating, Wheat: 0
[9]; [24]
  Plant response rating, Wheat: 0
[10]; [23]
  Plant response rating, Surinam grass: 0
[10]; [24]
  Plant response rating, Surinam grass: 0
Corn (Zea mays) [11]; [23]
  Plant response rating, Corn: 0
Corn (Zea mays) [11]; [24]
  Plant response rating, Corn: 30
[12]; [23]
  Plant response rating, Pigweed: 60
[12]; [24]
  Plant response rating, Pigweed: 90
[13]; [25]
  Plant response rating, Cocklebur: 90
[13]; [26]
  Plant response rating, Cocklebur: 40
[14]; [25]
  Plant response rating, Crabgrass: 100
[14]; [26]
  Plant response rating, Crabgrass: 100
[15]; [25]
  Plant response rating, Lambsquarters: 100
[15]; [26]
  Plant response rating, Lambsquarters: 100
[16]; [25]
  Plant response rating, Velvetleaf: 100
[16]; [26]
  Plant response rating, Velvetleaf: 20
[17]; [25]
  Plant response rating, Morningglory: 100
[17]; [26]
  Plant response rating, Morningglory: 90
[18]; [25]
  Plant response rating, Barnyardgrass: 100
[18]; [26]
  Plant response rating, Barnyardgrass: 100
[19]; [25]
  Plant response rating, Foxtail, Giant: 100
[19]; [26]
  Plant response rating, Foxtail, Giant: 80
Rice (Oryza saliva); [25]
  Plant response rating, Rice: 100
Rice (Oryza saliva); [26]
  Plant response rating, Rice: 100
[20]; [25]
  Plant response rating, Surinam grass: 90
[20]; [26]
  Plant response rating, Surinam grass: 60
Corn (Zea mays) [21]; [25]
  Plant response rating, Corn: 30
Corn (Zea mays) [21]; [26]
  Plant response rating, Corn: 20
[22]; [25]
  Plant response rating, Pigweed: 100
[22]; [26]
  Plant response rating, Pigweed: 100

## CC(C)(C)c1ccn(C2SCN(c3cccc(OC(F)F)c3)C2=O)n1 (stereo not drawn) [Compound 36]
Nightshade; Rate 250 g/ha
  Plant response rating (0 to 100), Nightshade: 90
Sunflower; Rate 125 g/ha
  Plant response rating, Sunflower: 0
[1]; [23]
  Plant response rating, Cocklebur: 20
[1]; [24]
  Plant response rating, Cocklebur: 60
[2]; [23]
  Plant response rating, Blackgrass: 0
[2]; [24]
  Plant response rating, Blackgrass: 0
Wild oat (Avena fatua); [23]
  Plant response rating, Wild Oat: 0
Wild oat (Avena fatua); [24]
  Plant response rating, Wild Oat: 20
[3]; [23]
  Plant response rating, Crabgrass: 80
[3]; [24]
  Plant response rating, Crabgrass: 100
[4]; [23]
  Plant response rating, Lambsquarters: 90
[4]; [24]
  Plant response rating, Lambsquarters: 100
[5]; [23]
  Plant response rating, Velvetleaf: 0
[5]; [24]
  Plant response rating, Velvetleaf: 60
[6]; [23]
  Plant response rating, Morningglory: 30
[6]; [24]
  Plant response rating, Morningglory: 40
[7]; [23]
  Plant response rating, Barnyardgrass: 90
[7]; [24]
  Plant response rating, Barnyardgrass: 100
[8]; [23]
  Plant response rating, Foxtail, Giant: 60
[8]; [24]
  Plant response rating, Foxtail, Giant: 90
[9]; [23]
  Plant response rating, Wheat: 0
[9]; [24]
  Plant response rating, Wheat: 0
[10]; [23]
  Plant response rating, Surinam grass: 0
[10]; [24]
  Plant response rating, Surinam grass: 50
Corn (Zea mays) [11]; [23]
  Plant response rating, Corn: 0
Corn (Zea mays) [11]; [24]
  Plant response rating, Corn: 70
[12]; [23]
  Plant response rating, Pigweed: 90
[12]; [24]
  Plant response rating, Pigweed: 100
[13]; [25]
  Plant response rating, Cocklebur: 0
[13]; [27]
  Plant response rating, Cocklebur: 0
[14]; [25]
  Plant response rating, Crabgrass: 100
[14]; [27]
  Plant response rating, Crabgrass: 100
[15]; [25]
  Plant response rating, Lambsquarters: 100
[15]; [27]
  Plant response rating, Lambsquarters: 100
[16]; [25]
  Plant response rating, Velvetleaf: 0
[17]; [25]
  Plant response rating, Morningglory: 0
[18]; [25]
  Plant response rating, Barnyardgrass: 100
[18]; [27]
  Plant response rating, Barnyardgrass: 100
[19]; [25]
  Plant response rating, Foxtail, Giant: 100
[19]; [27]
  Plant response rating, Foxtail, Giant: 100
Rice (Oryza saliva); [25]
  Plant response rating, Rice: 90
[20]; [25]
  Plant response rating, Surinam grass: 100
[20]; [27]
  Plant response rating, Surinam grass: 70
Corn (Zea mays) [21]; [25]
  Plant response rating, Corn: 0
Corn (Zea mays) [21]; [27]
  Plant response rating, Corn: 0
[22]; [25]
  Plant response rating, Pigweed: 100
